The values that follow come from ChEMBL document CHEMBL1136775, “Indole naphthyridinones as inhibitors of bacterial enoyl-ACP reductases FabI and FabK” (J Med Chem, 2003).

A short description of experiment [1]: Inhibitory activity against Enoyl-ACP reductase FabI in Haemophilus influenzae.
The target of experiment [2] is T1, Enoyl-[acyl-carrier-protein] reductase [NADPH] FabI (Staphylococcus aureus, UniProt Q6GI75).
T1 sequence (Q6GI75 whole entry): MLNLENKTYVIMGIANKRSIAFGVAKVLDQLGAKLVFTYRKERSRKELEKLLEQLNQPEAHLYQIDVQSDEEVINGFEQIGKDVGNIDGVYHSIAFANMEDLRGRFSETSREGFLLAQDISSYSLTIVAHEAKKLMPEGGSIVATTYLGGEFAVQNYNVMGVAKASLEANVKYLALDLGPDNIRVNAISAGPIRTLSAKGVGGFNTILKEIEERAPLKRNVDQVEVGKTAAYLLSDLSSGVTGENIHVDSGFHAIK
The experiment can be described thus: Inhibitory activity against Enoyl-ACP reductase FabI in Staphylococcus aureus.

The test system of another experiment is Haemophilus influenzae. The experiment can be described thus: Antibacterial activity against Haemophilus influenzae Q1. It is filed as functional.
Experiment [3] relates to Staphylococcus aureus. The experiment can be described thus: Antibacterial activity against Staphylococcus aureus WCUH29. In kind it is functional.
The subject of the next experiment is Escherichia coli. Nature of the experiment: Antibacterial activity against Escherichia coli 120AcrAB-. It is filed as functional.
Another experiment relates to Enterococcus faecalis. Nature of the experiment: Antibacterial activity against Enterococcus faecalis I. In kind it is functional.
Experiment [4] in a line: Inhibitory activity against Enoyl-ACP reductase FabI in Escherichia coli. It is filed as functional.
Experiment [5] in a line: Inhibitory activity against Enoyl-ACP reductase FabK in Streptococcus pneumoniae. It is filed as functional.
A further experiment relates to Streptococcus pneumoniae. Nature of the experiment: Antibacterial activity against Streptococcus pneumoniae 1629. In kind it is functional.
A further experiment concerns Moraxella catarrhalis. Nature of the experiment: Antibacterial activity against Moraxella catarrhalis. It is filed as functional.
Experiment [6] has as its system Staphylococcus aureus. The experiment can be described thus: Inhibitory activity against Staphylococcus aureus. In kind it is functional.
Experiment [7] concerns Staphylococcus aureus. The experiment can be described thus: Antibacterial activity against in Staphylococcus aureus WCUH29. It is filed as functional.
A further experiment has as its system A549. Nature of the experiment: Cytotoxicity against human A549 lung cells. It is filed as functional, cell-based.
Experiment [8] in a line: Inhibitory activity against human FASI enzyme. It is filed as functional.
The test system of a further experiment is Liposome. Nature of the experiment: Inhibitory activity in liposome lysis assay. In kind it is functional, subcellular, Homo sapiens.

Values after ≈ are worked out from the molar mass of the structure shown.

Turning to `CN(Cc1cc2ccccc2n1C)C(=O)/C=C/c1cnc2c(c1)CCCN2`, the values for the IC50 in [1] and in experiment [2] were 2.7 µM and 2.3 µM, respectively. Also, the MIC50 in the experiment with Haemophilus influenzae is > 64 mg/L; with Staphylococcus aureus [3] it was 0.5 mg/L (≈ 1.39 µM).

Take `Cc1cccc2c(CN(C)C(=O)/C=C/c3cnc4c(c3)CCC(=O)N4)c(C)n(C)c12`: the MIC50 against Escherichia coli is > 64 mg/L; against Enterococcus faecalis, > 64 mg/L; in the experiment with Haemophilus influenzae, > 64 mg/L; against Staphylococcus aureus [3], < 0.001 mg/L; against Streptococcus pneumoniae it was > 64 mg/L; against Moraxella catarrhalis, 2 mg/L (≈ 4.97 µM). In addition, the IC50 (as a rule, the point on the concentration scale where inhibition reaches its midpoint) in [4] is < 0.07 µM; in [1], 0.07 µM; in [2], 0.02 µM; in [5], > 30 µM.

For the compound `CC(=O)Nc1ccc(/C=C/C(=O)N(C)Cc2cc3ccccc3n2C)cn1`, the IC50 in [1] was 1.3 µM; in experiment [2], 0.3 µM. The MIC50 with Haemophilus influenzae was 32 mg/L (≈ 88.3 µM); in the experiment with Staphylococcus aureus [3], 0.12 mg/L (≈ 0.331 µM).

On to `Oc1cc(Cl)ccc1Oc1ccc(Cl)cc1Cl` [TRICLOSAN], for which the MIC50 in the experiment with Escherichia coli is 0.5 mg/L (≈ 1.73 µM); against Enterococcus faecalis it was 16 mg/L (≈ 55.3 µM); against Haemophilus influenzae it was 0.5 mg/L (≈ 1.73 µM); with Staphylococcus aureus [3] it was 0.03 mg/L (≈ 0.104 µM); against Streptococcus pneumoniae, 16 mg/L (≈ 55.3 µM); against Moraxella catarrhalis, < 0.06 mg/L. In experiment [5], the IC50 was > 30 µM.

With `CN(Cc1cc2ccccc2n1C)C(=O)/C=C/c1cnc2c(c1)CCC(=O)N2`, the results for the IC50 in experiment [1] and in [2] were 0.56 µM and 0.05 µM, respectively. Moreover, the MIC50 in the experiment with Haemophilus influenzae worked out at 32 mg/L (≈ 85.5 µM); against Staphylococcus aureus [3], 0.03 mg/L (≈ 0.0801 µM). Besides, the Ki (as a rule, a dissociation constant, usually derived from enzyme kinetics or from competition with a known ligand) with Staphylococcus aureus [6] was 0.0043 µM.

On to `CC(=O)Nc1ncc(/C=C/C(=O)N(C)Cc2cc3ccccc3n2C)cc1C`, for which the IC50 in experiment [1] came out at 7.6 µM; in [2], 0.94 µM. The values for the MIC50 in the experiment with Haemophilus influenzae and with Staphylococcus aureus [7] were > 64 mg/L and 2 mg/L (≈ 5.31 µM), respectively.

On to `CN(Cc1cc2ccccc2n1C)C(=O)/C=C/c1ccc(N)nc1`, for which the IC50 was 512 mg/L (≈ 1600 µM) in the experiment with A549, 4.2 µM in experiment [1], > 100 µM in [8] and 630 µM in the experiment with Liposome. In addition, the figures for the MIC50 in the experiment with Haemophilus influenzae and with Staphylococcus aureus [3] were > 64 mg/L and 0.5 mg/L (≈ 1.56 µM), respectively.

Regarding `Cc1[nH]c2ccccc2c1CN(C)C(=O)/C=C/c1cnc2c(c1)CCC(=O)N2`, the MIC50 is 0.5 mg/L (≈ 1.34 µM) against Escherichia coli; 16 mg/L (≈ 42.7 µM) against Enterococcus faecalis; 1 mg/L (≈ 2.67 µM) in the experiment on Haemophilus influenzae; 0.016 mg/L (≈ 0.0427 µM) against Staphylococcus aureus [3]; 16 mg/L (≈ 42.7 µM) in the experiment with Streptococcus pneumoniae; < 0.06 mg/L in the experiment with Moraxella catarrhalis. Also, the IC50 in experiment [4] is < 0.06 µM; in experiment [1] it was 0.13 µM; in [2], 0.05 µM; in [5], 3 µM.

Take `CN(Cc1cn(C)c2ccccc12)C(=O)/C=C/c1cnc2c(c1)CCC(=O)N2`: the MIC50 against Escherichia coli is 8 mg/L (≈ 21.4 µM); in the experiment with Enterococcus faecalis, 16 mg/L (≈ 42.7 µM); with Haemophilus influenzae it was 16 mg/L (≈ 42.7 µM); against Staphylococcus aureus [3], 0.06 mg/L (≈ 0.16 µM); against Streptococcus pneumoniae, 16 mg/L (≈ 42.7 µM); in the experiment on Moraxella catarrhalis it was < 0.06 mg/L. In addition, the IC50 in experiment [4] turned out to be 0.07 µM; in experiment [1], 0.39 µM; in experiment [2], 0.13 µM; in [5], 5 µM.

As for `Cc1c(CN(C)C(=O)/C=C/c2cnc3c(c2)CCC(=O)N3)c2ccccc2n1C`, the MIC50 in the experiment on Escherichia coli was 32 mg/L (≈ 82.4 µM); in the experiment on Enterococcus faecalis it was > 64 mg/L; in the experiment with Haemophilus influenzae, > 64 mg/L; against Staphylococcus aureus [3] it was < 0.001 mg/L; with Streptococcus pneumoniae, > 64 mg/L; with Moraxella catarrhalis, < 0.06 mg/L. Moreover, the IC50 in experiment [4] is 0.03 µM; in experiment [1], 0.025 µM; in experiment [2] it was 0.06 µM; in experiment [5] it was > 30 µM.

As to `Cc1cc(/C=C/C(=O)N(C)Cc2cc3ccccc3n2C)cnc1N`, the 50% inhibitory concentration (IC50) came to 6.1 µM in [1] and 0.91 µM in [2]. The MIC50 was > 64 mg/L in the experiment on Haemophilus influenzae and 0.25 mg/L (≈ 0.748 µM) in the experiment on Staphylococcus aureus [3].
